The values below come from ChEMBL document CHEMBL4828735, “Discovery of N-((3S,4S)-4-(3,4-Difluorophenyl)piperidin-3-yl)-2-fluoro-4-(1-methyl-1H-pyrazol-5-yl)benzamide (Hu7691), a Potent and Selective Akt Inhibitor That Enables Decrease of Cutaneous Toxicity” (J Med Chem, 2021).

In data set [1] the target is RAC-alpha serine/threonine-protein kinase (Homo sapiens, UniProt P31749). The data set is described as follows: Inhibition of N-terminal GST-tagged human AKT1 (104 to 408 residues) expressed in baculovirus infected Sf21 cells incubated for 1 hr in presence of ATP by mobility shift assay.
Chain of RAC-alpha serine/threonine-protein kinase (P31749 whole entry, the tested form may be a part): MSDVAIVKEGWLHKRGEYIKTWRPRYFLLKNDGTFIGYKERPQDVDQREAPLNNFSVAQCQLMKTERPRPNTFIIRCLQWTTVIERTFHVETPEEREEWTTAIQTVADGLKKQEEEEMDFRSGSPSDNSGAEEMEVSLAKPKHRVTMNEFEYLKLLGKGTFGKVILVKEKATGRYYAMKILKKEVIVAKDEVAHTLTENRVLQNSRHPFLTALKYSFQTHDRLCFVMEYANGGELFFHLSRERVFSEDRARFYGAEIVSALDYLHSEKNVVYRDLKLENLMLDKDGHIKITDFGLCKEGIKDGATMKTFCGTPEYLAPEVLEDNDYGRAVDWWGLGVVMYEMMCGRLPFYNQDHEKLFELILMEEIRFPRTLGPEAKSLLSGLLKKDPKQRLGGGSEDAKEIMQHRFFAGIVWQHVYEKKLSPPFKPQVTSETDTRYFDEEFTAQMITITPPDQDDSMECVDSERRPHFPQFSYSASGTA
Data set [2] deals with HGC-27. The data set is described as follows: Antiproliferative activity against human HGC-27 cells assessed as inhibition of cell growth incubated for 72 hrs by SRB assay. The format is functional, cell-based. The settings on record: HGC-27, 72 h. On the technique in general: In SRB staining, fixed cells bind dye roughly in proportion to their protein.
For data set [3], the system named is 786-0. Briefly: Antiproliferative activity against human 786-0 cells assessed as inhibition of cell growth incubated for 72 hrs by SRB assay. In kind it is functional, cell-based. The settings on record: 786-0, 72 h.
Data set [4] concerns KHOS/NP. Briefly: Antiproliferative activity against human KHOS cells assessed as inhibition of cell growth incubated for 72 hrs by SRB assay. The format is functional, cell-based.
Data set [5] deals with hERG (KCNH2) (Homo sapiens, UniProt Q12809). The data set is described as follows: Inhibition of human ERG expressed in HEK293 cells at 3 uM by whole cell patch clamp method relative to control. In kind it is cell-based. The settings on record: HEK293 cells expressing hERG. A general note: Patch clamp records ionic current or voltage across a cell membrane.
Chain of hERG (KCNH2) (Q12809 whole entry): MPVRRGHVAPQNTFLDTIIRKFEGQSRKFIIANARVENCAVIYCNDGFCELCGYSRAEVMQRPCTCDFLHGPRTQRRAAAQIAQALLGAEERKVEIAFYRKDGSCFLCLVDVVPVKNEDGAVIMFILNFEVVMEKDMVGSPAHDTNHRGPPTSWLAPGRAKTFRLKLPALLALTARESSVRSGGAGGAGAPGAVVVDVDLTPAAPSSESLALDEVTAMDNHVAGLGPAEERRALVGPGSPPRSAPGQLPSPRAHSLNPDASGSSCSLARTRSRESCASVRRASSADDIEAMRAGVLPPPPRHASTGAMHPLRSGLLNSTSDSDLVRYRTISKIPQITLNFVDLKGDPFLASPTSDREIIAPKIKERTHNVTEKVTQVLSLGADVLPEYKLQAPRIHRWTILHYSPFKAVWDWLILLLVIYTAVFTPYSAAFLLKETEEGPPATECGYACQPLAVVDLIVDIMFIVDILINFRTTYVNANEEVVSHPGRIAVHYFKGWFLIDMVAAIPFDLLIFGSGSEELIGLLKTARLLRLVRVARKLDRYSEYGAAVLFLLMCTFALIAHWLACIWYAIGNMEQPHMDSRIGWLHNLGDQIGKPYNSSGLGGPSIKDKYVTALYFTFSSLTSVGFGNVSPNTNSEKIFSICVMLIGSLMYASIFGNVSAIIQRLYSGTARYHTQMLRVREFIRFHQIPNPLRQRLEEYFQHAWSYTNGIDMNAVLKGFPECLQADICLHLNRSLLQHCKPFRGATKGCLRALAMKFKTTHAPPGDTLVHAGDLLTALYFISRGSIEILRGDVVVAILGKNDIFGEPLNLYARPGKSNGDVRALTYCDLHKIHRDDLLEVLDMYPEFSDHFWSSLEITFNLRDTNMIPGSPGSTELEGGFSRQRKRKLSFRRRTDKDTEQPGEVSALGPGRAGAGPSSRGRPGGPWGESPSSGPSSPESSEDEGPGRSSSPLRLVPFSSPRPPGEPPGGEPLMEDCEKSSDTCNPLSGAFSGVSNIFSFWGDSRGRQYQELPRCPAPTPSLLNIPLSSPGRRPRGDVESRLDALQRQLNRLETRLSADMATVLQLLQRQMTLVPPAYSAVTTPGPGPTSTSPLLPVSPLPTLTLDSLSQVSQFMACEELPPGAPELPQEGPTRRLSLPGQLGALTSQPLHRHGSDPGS
The subject of data set [6] is HaCaT. Briefly: Antiproliferative activity against human HaCaT cells assessed as inhibition of cell growth incubated for 72 hrs by SRB assay. The format is cell-based.

Molecules are shown by their SMILES.

`Cn1nccc1-c1cc(F)c(C(=O)N[C@@H]2CNCC[C@H]2c2ccc(F)cc2)c(F)c1`: the IC50 – broadly, the concentration needed to halve the response being measured – in data set [1] is 0.107 µM; in data set [2], 7.27 µM; in data set [3], 25.5 µM; in data set [4], 29.1 µM.

For the compound `Cn1ncc(Cl)c1-c1cc(F)c(C(=O)N[C@@H]2CNCC[C@H]2c2ccc(F)c(F)c2)c(F)c1`, the IC50 worked out at 0.0971 µM in data set [1], 4.86 µM in data set [2], 4.28 µM in data set [3] and 4.46 µM in data set [4].

In the case of `Cn1nccc1-c1ccc(C(=O)N[C@@H]2CNCC[C@H]2c2cc(F)cc(F)c2)cc1F`, the IC50 worked out at 0.0018 µM in data set [1], 0.15 µM in data set [2], 1.01 µM in data set [3] and 7.27 µM in data set [4]. Moreover, the inhibition (commonly how much of the control response was suppressed) at 3 µM in data set [5] came out at 26.4%.

Regarding `Cn1nccc1-c1ccc(C(=O)N[C@@H]2CNCC[C@H]2c2ccc(F)c(F)c2)cc1`, in data set [6], the IC50 was determined as 5.44 µM.

As to `Cn1nccc1-c1ccc(C(=O)N[C@@H]2CNCC[C@H]2c2cc(F)cc(F)c2)c(Cl)c1`, the IC50 in data set [1] worked out at 0.015 µM; in data set [2], 1.24 µM; in data set [3], 3.79 µM; in data set [4], 11.8 µM.

As to `Cn1nccc1-c1ccc(C(=O)N[C@@H]2CNCC[C@H]2c2ccc(F)c(F)c2)cc1F`, the IC50 in data set [1] was found to be 0.0027 µM; in data set [2], 0.18 µM; in data set [3], 0.95 µM; in data set [4] it was 7.43 µM. In data set [5], this compound showed an inhibition at 3 µM of 10.7%.

As to `Cn1ncc(Cl)c1-c1cc(F)c(C(=O)N[C@@H]2CNCC[C@H]2c2ccc(F)c(F)c2)cc1F`, the IC50 in data set [1] was determined as 0.0489 µM.

Consider `Cn1nccc1-c1cc(F)c(C(=O)N[C@@H]2CNCC[C@H]2c2ccc(F)c(F)c2)c(F)c1`, for which the IC50 in data set [1] amounted to 0.0263 µM; in data set [2] it was 4.59 µM; in data set [3] it was 7.99 µM; in data set [4], 15.4 µM.

As to `CCn1nccc1-c1ccc(C(=O)N[C@@H]2CNCC[C@H]2c2ccc(F)c(F)c2)c(F)c1`, the IC50 in data set [1] was found to be 0.176 µM; in data set [2], 3.57 µM; in data set [3] it was 5.2 µM; in data set [4], 5.46 µM.

For the compound `Cn1ncc(Br)c1-c1cc(F)c(C(=O)N[C@@H]2CNCC[C@H]2c2ccc(F)c(F)c2)c(F)c1`, the IC50 in data set [1] was 0.0957 µM; in data set [2] it was 2.9 µM; in data set [3], 3.56 µM; in data set [4], 5.01 µM.

Turning to `Cn1nccc1-c1cc(F)c(C(=O)N[C@@H]2CNCC[C@H]2c2ccc(F)c(F)c2)c(Cl)c1`, the IC50 in data set [1] amounted to 0.047 µM; in data set [2], 1.7 µM; in data set [3], 2.2 µM; in data set [4], 3.89 µM.

As to `Cn1ncc(Br)c1-c1cc(F)c(C(=O)N[C@@H]2CNCC[C@H]2c2ccc(F)c(F)c2)cc1F`, the IC50 was 0.0662 µM in data set [1], 1.79 µM in data set [2], 1.9 µM in data set [3] and 3.06 µM in data set [4].

As to `Cn1nccc1-c1cc(F)c(C(=O)N[C@@H]2CNCC[C@H]2c2ccc(F)c(F)c2)cc1F`, the IC50 in data set [1] worked out at 0.0092 µM; in data set [2], 1.45 µM; in data set [3], 5.05 µM; in data set [4], 18.4 µM. For the same compound, the inhibition at 3 µM in data set [5] was determined as 27.2%.

`Cn1ncc(Cl)c1-c1cc(F)c(C(=O)N[C@@H]2CNCC[C@H]2c2ccc(F)c(F)c2)c(Cl)c1`: the IC50 came out at 0.142 µM in data set [1], 3.06 µM in data set [2], 3.17 µM in data set [3] and 3.67 µM in data set [4].

As to `Cn1nccc1-c1ccc(C(=O)N[C@@H]2CNCC[C@H]2c2cc(F)cc(F)c2)c(F)c1`, the IC50 amounted to 0.0046 µM in data set [1], 0.51 µM in data set [2], 2.22 µM in data set [3] and 17.1 µM in data set [4]. The compound also registered an inhibition at 3 µM in data set [5] of 6.4%.

In the case of `Cn1nccc1-c1ccc(C(=O)N[C@@H]2CNCC[C@H]2c2ccc(F)c(F)c2)c(Cl)c1`, the IC50 amounted to 0.024 µM in data set [1], 1.4 µM in data set [2], 4.07 µM in data set [3] and 11.7 µM in data set [4].

Take `O=C(N[C@@H]1CNCC[C@H]1c1ccc(F)c(F)c1)c1ccc(-c2ccn[nH]2)cc1F`: the IC50 in data set [1] stood at 0.083 µM; in data set [2] it was 4.34 µM; in data set [3] it was 7.15 µM; in data set [4], 10.7 µM.

`Cn1nccc1-c1cc(F)c(C(=O)N[C@@H]2CNCC[C@H]2c2ccc(F)cc2)cc1F`: the IC50 in data set [1] is 0.0353 µM; in data set [2], 3.36 µM; in data set [3], 7.81 µM; in data set [4], 17.6 µM.

On to `Cn1ncc(Br)c1-c1cc(F)c(C(=O)N[C@@H]2CNCC[C@H]2c2ccc(F)c(F)c2)c(Cl)c1`, for which the IC50 was 0.137 µM in data set [1], 3.28 µM in data set [2], 3.21 µM in data set [3] and 3.61 µM in data set [4].
